# Experimental data published in patent US20100204224A1, “AZACYCLIC COMPOUNDS AS INHIBITORS OF SENSORY NEURONE SPECIFIC SODIUM CHANNELS” (priority 2005, published 2010).
# Molecular target: T1, human Nav1.8 (hNav1.8) ion channel (Homo sapiens, UniProt Q9Y5Y9)
# T1 construct: expressed in transfected cells
# Experiment: Inhibition of human Nav1.8 stably expressed in SH-SY-5Y cells (membrane potential dye fluorescence assay)
# Type: cell-based
# Settings: SH-SY-5Y hNav1.8 cells; FLIPR membrane potential dye; 10 μM pyrethroid, 250 nM TTX; test concentration range 100 μM-0.05 μM; read-out: hNav1.8 IC50
# Procedure: Inhibition of Human Nav1.8 stably expressed in SH-SY-5Y Cells
# A SH-SY-5Y neuroblastoma cell line stably expressing the human Nav1.8 (hNav1.8) ion channel was constructed. This cell line has been used to develop a medium to high throughput assay for determining the ability of test compounds to inhibit membrane depolarisation mediated via the hNav1.8 channel.
# SH-SY-5Y hNav1.8 are grown in adherent monolayer culture using 50:50 Ham's F-12/EMEM tissue culture medium supplemented with 15% (v/v) foetal bovine serum; 2 mM L-glutamine, 1% NEAR and 600 μg·ml^−1 Geneticin sulphate. Cells are removed from the tissue culture flask using trypsin/EDTA and re-plated into black walled, clear bottom 96-well assay plates at 50,000 cells·well^−1 24 hours prior to assay.
# On the day of assay the cell assay plates are washed to remove cell culture medium using a sodium free assay buffer (145 mM tetramethyl ammonium chloride; 2 mM calcium chloride; 0.8 mM magnesium chloride hexahydrate; 10 mM HEPES; 10 mM glucose; 5 mM potassium chloride, pH 7.4). Fluorescent membrane potential dye solution (FLIPR™ membrane potential dye, Molecular Devices Corporation), containing 10 μM of a pyrethroid to prevent channel inactivation and 250 nM tetrodotoxin (TTX) to reduce interference from TTX-sensitive sodium channels present in the cell line. Test compound, initially dissolved in dimethyl sulfoxide but further diluted in sodium free buffer, is added to achieve the final test concentration range of 100 μM-0.05 μM.
# Cell plates are incubated for 30 minutes at room temperature to allow equilibration of dye and test compound. Plates are then transferred to a fluorescence plate reader for fluorescence measurement using an excitation wavelength of 530 nm whilst measuring fluorescence emission at 565 nm. Baseline fluorescence levels are first determined before the addition of a sodium containing buffer (220 mM sodium chloride; 2 mM calcium chloride; 0.8 mM magnesium chloride hexahydrate; 10 mM HEPES; 10 mM glucose; 5 mM potassium chloride. pH 7.4) to cause membrane depolarisation in those cells where channel block has not been effected (final sodium concentration=72.5 mM). Membrane depolarisation is registered by an increase in fluorescence emission at 565 nm.
# The change in fluorescence seen in each test well upon the addition of sodium containing buffer is calculated relative to the baseline fluorescence for that well. This figure is then used for calculating the IC50 for each test compound.
# T1 sequence (Q9Y5Y9 whole entry): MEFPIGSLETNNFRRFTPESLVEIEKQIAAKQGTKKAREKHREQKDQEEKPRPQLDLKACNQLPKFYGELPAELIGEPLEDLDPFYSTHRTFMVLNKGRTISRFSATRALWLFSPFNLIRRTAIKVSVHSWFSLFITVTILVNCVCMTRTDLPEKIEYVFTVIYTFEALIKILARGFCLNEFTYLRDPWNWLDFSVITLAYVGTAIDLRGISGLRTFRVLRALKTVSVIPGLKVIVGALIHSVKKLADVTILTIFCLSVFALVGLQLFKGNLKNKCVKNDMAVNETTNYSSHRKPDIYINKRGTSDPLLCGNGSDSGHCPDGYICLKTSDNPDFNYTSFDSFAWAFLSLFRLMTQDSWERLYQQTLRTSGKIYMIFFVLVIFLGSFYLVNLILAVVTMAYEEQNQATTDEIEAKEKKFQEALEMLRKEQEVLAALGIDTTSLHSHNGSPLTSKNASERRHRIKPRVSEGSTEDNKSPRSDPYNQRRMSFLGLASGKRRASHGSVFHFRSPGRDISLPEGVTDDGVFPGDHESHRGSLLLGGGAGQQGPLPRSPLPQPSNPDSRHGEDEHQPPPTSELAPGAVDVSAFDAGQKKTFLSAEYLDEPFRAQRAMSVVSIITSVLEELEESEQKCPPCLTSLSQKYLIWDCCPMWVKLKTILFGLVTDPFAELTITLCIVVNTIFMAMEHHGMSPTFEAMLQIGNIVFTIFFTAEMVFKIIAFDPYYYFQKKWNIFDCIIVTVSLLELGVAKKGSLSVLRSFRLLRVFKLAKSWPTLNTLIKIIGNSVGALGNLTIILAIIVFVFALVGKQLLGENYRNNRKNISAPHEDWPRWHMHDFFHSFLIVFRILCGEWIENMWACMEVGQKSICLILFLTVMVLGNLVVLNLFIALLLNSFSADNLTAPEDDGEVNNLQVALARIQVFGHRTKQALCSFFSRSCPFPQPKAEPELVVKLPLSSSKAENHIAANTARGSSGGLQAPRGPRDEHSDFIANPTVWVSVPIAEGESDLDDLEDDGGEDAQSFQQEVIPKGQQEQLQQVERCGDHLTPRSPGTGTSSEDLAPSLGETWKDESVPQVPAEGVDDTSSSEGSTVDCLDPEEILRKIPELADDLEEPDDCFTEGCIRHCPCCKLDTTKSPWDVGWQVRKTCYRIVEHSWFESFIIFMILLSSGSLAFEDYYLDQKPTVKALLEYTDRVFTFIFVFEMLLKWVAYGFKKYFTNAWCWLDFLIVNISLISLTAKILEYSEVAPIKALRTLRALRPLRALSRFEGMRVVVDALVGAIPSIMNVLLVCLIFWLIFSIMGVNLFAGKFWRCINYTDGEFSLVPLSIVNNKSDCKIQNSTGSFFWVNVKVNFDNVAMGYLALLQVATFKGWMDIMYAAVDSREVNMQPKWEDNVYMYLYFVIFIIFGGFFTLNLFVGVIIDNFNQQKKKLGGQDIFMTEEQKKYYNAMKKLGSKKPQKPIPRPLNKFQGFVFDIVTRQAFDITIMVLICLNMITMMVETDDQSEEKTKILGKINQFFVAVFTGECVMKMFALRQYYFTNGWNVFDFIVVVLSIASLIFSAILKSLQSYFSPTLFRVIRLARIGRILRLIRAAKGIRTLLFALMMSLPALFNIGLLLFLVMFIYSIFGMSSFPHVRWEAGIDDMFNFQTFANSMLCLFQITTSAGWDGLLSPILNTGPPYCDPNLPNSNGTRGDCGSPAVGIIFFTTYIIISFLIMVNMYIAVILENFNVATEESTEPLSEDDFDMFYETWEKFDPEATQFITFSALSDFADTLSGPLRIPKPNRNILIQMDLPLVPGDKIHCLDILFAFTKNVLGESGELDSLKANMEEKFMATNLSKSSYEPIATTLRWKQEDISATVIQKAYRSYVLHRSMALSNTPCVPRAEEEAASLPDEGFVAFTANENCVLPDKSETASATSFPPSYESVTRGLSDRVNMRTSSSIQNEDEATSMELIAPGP
row,Compound,IC50 [nM]
1,"Cc1ccccc1CC(C)N1CC2CC1CN2C(=O)Nc1cccc(C(F)(F)F)c1 (stereo not shown) [Example 67, 5-(1-Methyl-2-o-tolyl-ethyl)-2,5-diaza-bicyclo[2.2.1]heptane-2-carboxylic acid (3-trifluoromethyl-phenyl)-amide]",1220
2,"CC(c1ccc(C#N)cc1)N1CC2CC1CN2C(=O)Nc1ccc(Oc2ccc(F)cc2)cc1 (stereo not shown) [Example 90, 5-[1-(4-Cyano-phenyl)-ethyl]-2,5-diaza-bicyclo[2.2.1]heptane-2-carboxylic acid [4-(4-fluoro-phenoxy)-phenyl]-amide]",1400
3,"O=C(Nc1ccc(C(F)(F)F)cc1)N1CC2CC1CN2C1Cc2ccc(F)cc2C1 (stereo not shown) [Example 130, 5-(5-Fluoro-indan-2-yl)-2,5-diaza-bicyclo[2.2.1]heptane-2-carboxylic acid (4-trifluoromethyl-phenyl)-amide]",3610
4,"CC(c1ccccc1Cl)N1CC2CC1CN2C(=O)c1ccc(Oc2cccc(C#N)c2)cc1 (stereo not shown) [Example 173, 3-(4-{5-[1-(2-Chloro-phenyl)-ethyl]-2,5-diaza-bicyclo[2.2.1]heptane-2-carbonyl}-phenoxy)-benzonitrile]",1930
5,"O=C(Nc1ccc(Oc2ccccc2)cc1)N1CCC2(CCN(Cc3ccccc3)C2)C1 (stereo not shown) [Example 88, 7-Benzyl-2,7-diaza-spiro[4.4]nonane-2-carboxylic acid (4-phenoxy-phenyl)-amide]",390
6,"Cc1cc(F)ccc1C(C)N1CC2CC1CN2C(=O)Nc1ccc(C(=O)c2ccccc2)cc1 (stereo not shown) [Example 71, 5-[1-(4-Fluoro-2-methyl-phenyl)-ethyl]-2,5-diaza-bicyclo[2.2.1]heptane-2-carboxylic acid (4-benzoyl-phenyl)-amide]",2360
7,"Cc1ccsc1C(C)N1CC2CC1CN2C(=O)Nc1ccc(C(F)(F)F)cc1 (stereo not shown) [Example 15, 5-[1-(3-Methyl-thiophen-2-yl)-ethyl]-2,5-diaza-bicyclo[2.2.1]heptane-2-carboxylic acid (4-trifluoromethyl-phenyl)-amide]",3040
8,"O=C(Nc1ccc(Cc2ccccc2)cc1)N1CC2CC1CN2C1Cc2ccc(F)cc2C1 (stereo not shown) [Example 124, 5-(5-Fluoro-indan-2-yl)-2,5-diaza-bicyclo[2.2.1]heptane-2-carboxylic acid (4-benzyl-phenyl)-amide]",640
9,"Cc1ccccc1C(C)N1CC2CC1CN2C(=O)Nc1ccc(Oc2ccccc2)cc1 (stereo not shown) [Example 32, 5-(1-o-Tolyl-ethyl)-2,5-diaza-bicyclo[2.2.1]heptane-2-carboxylic acid (4-phenoxy-phenyl)-amide]",710
10,"CC(c1ccccc1Cl)N1CC2CC1CN2C(=O)Nc1ccc(Oc2ccccc2)cc1 (single isomer, unassigned) [Example 11, 5-[1-(2-Chloro-phenyl)-ethyl]-2,5-diaza-bicyclo[2.2.1]heptane-2-carboxylic acid (4-phenoxy-phenyl)-amide]",1800
11,"CC(c1ccc(F)cc1Cl)N1CC2CC1CN2C(=O)Nc1ccc(Oc2ccccc2)cc1 (stereo not shown) [Example 7, 5-[1-(2-Chloro-4-fluoro-phenyl)-ethyl]-2,5-diaza-bicyclo[2.2.1]heptane-2-carboxylic acid (4-phenoxy-phenyl)-amide]",4320
12,"CC(c1ccccc1C(F)(F)F)N1CC2CC1CN2C(=O)Nc1ccc(C(F)(F)F)cc1 (single isomer, unassigned) [Example 54, 5-[1-(2-Trifluoromethyl-phenyl)-ethyl]-2,5-diaza-bicyclo[2.2.1]heptane-2-carboxylic acid (4-trifluoromethyl-phenyl)-amide]",1750
13,"Cc1cc(F)ccc1C(C)N1CC2CC1CN2C(=O)Nc1ccc(C(F)(F)F)cc1 (stereo not shown) [Example 65, 5-[1-(4-Fluoro-2-methyl-phenyl)-ethyl]-2,5-diaza-bicyclo[2.2.1]heptane-2-carboxylic acid (4-trifluoromethyl-phenyl)-amide]",600
14,"CC(c1c(F)cccc1F)N1CC2CC1CN2C(=O)Nc1ccc(Oc2ccccc2)cc1 (stereo not shown) [Example 9, 5-[1-(2,6-Difluoro-phenyl)-ethyl]-2,5-diaza-bicyclo[2.2.1]heptane-2-carboxylic acid (4-phenoxy-phenyl)-amide]",870
15,"Cc1ccccc1C(C)N1CC2CC1CN2C(=O)Nc1ccc(Oc2ccccc2)cc1 (stereo not shown) [Example 4, 5-(1-o-Tolyl-ethyl)-2,5-diaza-bicyclo[2.2.1]heptane-2-carboxylic acid (4-phenoxy-phenyl)-amide]",320
16,"CC(c1ccc(Cl)cc1Cl)N1CC2CC1CN2C(=O)Nc1ccc(Oc2ccc(F)cc2)cc1 (stereo not shown) [Example 118, 5-[1-(2,4-Dichloro-phenyl)-ethyl]-2,5-diaza-bicyclo[2.2.1]heptane-2-carboxylic acid [4-(4-fluoro-phenoxy)-phenyl]-amide]",17600
17,"O=C(Nc1ccc(Oc2ccccc2)cc1)N1CC2CC1CN2C1Cc2ccc(F)cc2C1 (stereo not shown) [Example 125, 5-(5-Fluoro-indan-2-yl)-2,5-diaza-bicyclo[2.2.1]heptane-2-carboxylic acid (4-phenoxy-phenyl)-amide]",780
18,"O=C(NCc1ccc(Oc2ccc(F)cc2)cc1)N1CC2CC1CN2C1Cc2ccc(F)cc2C1 (stereo not shown) [Example 146, 5-(5-Fluoro-indan-2-yl)-2,5-diaza-bicyclo[2.2.1]heptane-2-carboxylic acid 4-(4-fluoro-phenoxy)-benzylamide]",1280
19,"CC(c1ccc(Cl)cc1Cl)N1CC2CC1CN2C(=O)Nc1ccc(Oc2ccc(Cl)cc2)cc1 (stereo not shown) [Example 121, 5-[1-(2,4-Dichloro-phenyl)-ethyl]-2,5-diaza-bicyclo[2.2.1]heptane-2-carboxylic acid [4-(4-chloro-phenoxy)-phenyl]-amide]",22400
20,"CC(c1ccccc1C(F)(F)F)N1CC2CC1CN2C(=O)Nc1cccc(Oc2ccccc2)c1 (stereo not shown) [Example 63, 5-[1-(2-Trifluoromethyl-phenyl)-ethyl]-2,5-diaza-bicyclo[2.2.1]heptane-2-carboxylic acid (3-phenoxy-phenyl)-amide]",6100
21,"CC(c1ccccc1C(F)(F)F)N1CC2CC1CN2C(=O)Nc1ccc(C(F)(F)F)cc1 (single isomer, unassigned) [Example 56, 5-[1-(2-Trifluoromethyl-phenyl)-ethyl]-2,5-diaza-bicyclo[2.2.1]heptane-2-carboxylic acid (4-trifluoromethyl-phenyl)-amide]",7910
22,"CC(c1ccc(F)cc1Cl)N1CC2CC1CN2C(=O)c1ccc(Oc2ccc(F)cc2)cc1 (stereo not shown) [Example 163, {5-[1-(2-Chloro-4-fluoro-phenyl)-ethyl]-2,5-diaza-bicyclo[2.2.1]hept-2-yl}-[4-(4-fluoro-phenoxy)-phenyl]-methanone]",17700
23,"CC(c1ccccc1C(F)(F)F)N1CC2CC1CN2C(=O)Nc1cccc(Oc2ccccc2)c1 (stereo not shown) [Example 61, 5-[1-(2-Trifluoromethyl-phenyl)-ethyl]-2,5-diaza-bicyclo[2.2.1]heptane-2-carboxylic acid (3-phenoxy-phenyl)-amide]",4640

# Same assay, conditions: hNav1.8 IC50, SH-SY-5Y hNav1.8 cells; FLIPR membrane potential dye; 10 μM pyrethroid, 250 nM TTX; test concentration range 100 μM-0.05 μM
row,Compound,IC50 [nM]
1,"CC(c1ccc(Cl)cc1Cl)N1CC2CC1CN2C(=O)Cc1ccc(Oc2ccc(F)cc2)cc1 (stereo not shown) [Example 155, 1-{5-[1-(2,4-Dichloro-phenyl)-ethyl]-2,5-diaza-bicyclo[2.2.1]hept-2-yl}-2-[4-(4-fluoro-phenoxy)-phenyl]-ethanone]",18200
2,"CC(c1c(F)cccc1Cl)N1CC2CC1CN2C(=O)Cc1ccc(Oc2ccc(F)cc2)cc1 (single isomer, unassigned) [Example 166, 1-{5-[1-(2-Chloro-6-fluoro-phenyl)-ethyl]-2,5-diaza-bicyclo[2.2.1]hept-2-yl}-2-[4-(4-fluoro-phenoxy)-phenyl]-ethanone]",3910
3,"Cc1ccccc1C(C)N1CC2CC1CN2C(=O)Cc1ccc(Oc2cccc(F)c2)cc1 (stereo not shown) [Example 171, 2-[4-(3-Fluoro-phenoxy)-phenyl]-1-[5-(1-o-tolyl-ethyl)-2,5-diaza-bicyclo[2.2.1]hept-2-yl]-ethanone]",670
4,"O=C(Cc1ccc(Oc2ccc(F)cc2)cc1)N1CC2CC1CN2C1CCc2cc(F)ccc2C1 (stereo not shown) [Example 144, 2-[4-(4-Fluoro-phenoxy)-phenyl]-1-[5-(6-fluoro-1,2,3,4-tetrahydro-naphthalen-2-yl)-2,5-diaza-bicyclo[2.2.1]hept-2-yl]-ethanone]",1600
5,"CC(c1ccccc1Cl)N1CC2CC1CN2C(=O)Cc1ccc(Oc2cccc(F)c2)cc1 (stereo not shown) [Example 170, 1-{5-[1-(2-Chloro-phenyl)-ethyl]-2,5-diaza-bicyclo[2.2.1]hept-2-yl}-2-[4-(3-fluoro-phenoxy)-phenyl]-ethanone]",1570
